In US11572590B2, “Methods for evaluating tumor cell spheroids using 3D microfluidic cell culture device” (Dana-Farber Cancer Institute, Inc., priority 2017, dated 2023):
Read-outs that look alike come from different tables or passages of the source.

Assays:
Test in all cases: SelectScreen Kinase Profiling, single point inhibition and IC50 for off-target kinases
Type in all cases: biochemical
[1] = biological target: off-target kinases (Homo sapiens, UniProt Q9BYT3); conditions: STK33, LanthaScreen Binding
[2] = biological target: T1, off-target kinases (Homo sapiens, UniProt Q9BXA7); conditions: STK22D (TSSK1), ATP Km app, ZLYTE
T1 sequence (Q9BXA7 1-367): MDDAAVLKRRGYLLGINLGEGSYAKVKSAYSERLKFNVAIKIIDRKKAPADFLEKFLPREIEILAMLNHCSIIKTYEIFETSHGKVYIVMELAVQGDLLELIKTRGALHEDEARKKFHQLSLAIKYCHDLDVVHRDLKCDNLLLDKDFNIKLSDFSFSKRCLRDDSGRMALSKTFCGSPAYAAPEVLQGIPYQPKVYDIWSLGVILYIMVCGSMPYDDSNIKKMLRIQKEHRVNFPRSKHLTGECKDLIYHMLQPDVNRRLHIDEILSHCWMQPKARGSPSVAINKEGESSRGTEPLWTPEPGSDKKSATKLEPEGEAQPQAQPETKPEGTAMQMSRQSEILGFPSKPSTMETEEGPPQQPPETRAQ

[3] = biological target: off-target kinases (Homo sapiens, UniProt P16234); conditions: PDGFRA (PDGFR alpha), ATP Km app, ZLYTE
[4] = biological target: off-target kinases (Homo sapiens, UniProt Q14012); conditions: CAMK1 (CaMK1), Adapta, ATP 10
[5] = biological target: off-target kinases (Homo sapiens, UniProt Q9HC98); conditions: NEK6, ZLYTE, ATP Km app
[6] = biological target: T2, off-target kinases (Homo sapiens, UniProt Q06418); conditions: TYRO3 (RSE), ZLYTE, ATP Km app
T2 sequence (Q06418 41-890): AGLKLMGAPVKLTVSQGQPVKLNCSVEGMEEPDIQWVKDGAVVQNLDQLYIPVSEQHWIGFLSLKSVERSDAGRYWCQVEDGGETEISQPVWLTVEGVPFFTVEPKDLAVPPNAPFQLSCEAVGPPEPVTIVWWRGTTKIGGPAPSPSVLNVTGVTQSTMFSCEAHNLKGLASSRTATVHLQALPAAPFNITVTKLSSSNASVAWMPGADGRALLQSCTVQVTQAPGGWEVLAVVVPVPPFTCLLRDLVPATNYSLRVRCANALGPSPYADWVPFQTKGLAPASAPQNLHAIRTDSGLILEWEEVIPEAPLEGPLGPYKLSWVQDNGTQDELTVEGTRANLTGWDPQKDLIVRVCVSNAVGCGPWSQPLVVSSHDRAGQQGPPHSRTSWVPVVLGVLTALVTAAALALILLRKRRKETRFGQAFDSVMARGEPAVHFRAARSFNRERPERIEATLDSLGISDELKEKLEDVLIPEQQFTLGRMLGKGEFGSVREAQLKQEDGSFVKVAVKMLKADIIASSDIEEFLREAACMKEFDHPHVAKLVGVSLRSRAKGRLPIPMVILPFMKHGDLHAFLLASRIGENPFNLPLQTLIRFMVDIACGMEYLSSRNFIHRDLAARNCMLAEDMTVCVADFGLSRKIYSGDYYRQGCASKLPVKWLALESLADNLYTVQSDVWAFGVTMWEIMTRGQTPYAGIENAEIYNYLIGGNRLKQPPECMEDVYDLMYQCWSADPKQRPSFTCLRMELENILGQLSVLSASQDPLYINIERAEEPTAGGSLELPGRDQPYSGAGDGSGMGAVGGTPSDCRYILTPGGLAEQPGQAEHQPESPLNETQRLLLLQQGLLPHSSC

[7] = biological target: off-target kinases (Homo sapiens, UniProt P53671); conditions: LIMK2, LanthaScreen Binding
off-target kinases (Homo sapiens, UniProt P53671), sequence (P53671 whole entry): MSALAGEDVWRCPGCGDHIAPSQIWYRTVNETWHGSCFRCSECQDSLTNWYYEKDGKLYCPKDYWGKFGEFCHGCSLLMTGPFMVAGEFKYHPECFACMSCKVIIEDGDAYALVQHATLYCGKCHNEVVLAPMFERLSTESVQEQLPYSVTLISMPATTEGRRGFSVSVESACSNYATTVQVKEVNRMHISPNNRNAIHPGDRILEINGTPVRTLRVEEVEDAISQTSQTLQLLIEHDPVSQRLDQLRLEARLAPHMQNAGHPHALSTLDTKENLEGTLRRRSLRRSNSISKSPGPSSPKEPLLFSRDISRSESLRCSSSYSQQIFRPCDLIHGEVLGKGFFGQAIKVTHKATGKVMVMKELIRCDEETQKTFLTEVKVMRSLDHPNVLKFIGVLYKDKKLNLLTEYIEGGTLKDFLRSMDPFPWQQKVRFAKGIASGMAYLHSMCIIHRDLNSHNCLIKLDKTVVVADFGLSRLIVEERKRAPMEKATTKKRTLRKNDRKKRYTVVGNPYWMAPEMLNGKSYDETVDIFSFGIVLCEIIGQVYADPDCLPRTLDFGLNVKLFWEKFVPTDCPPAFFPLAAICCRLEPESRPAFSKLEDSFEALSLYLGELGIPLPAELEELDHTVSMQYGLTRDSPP

off-target kinases (Homo sapiens, UniProt Q9BYT3), sequence (Q9BYT3 whole entry): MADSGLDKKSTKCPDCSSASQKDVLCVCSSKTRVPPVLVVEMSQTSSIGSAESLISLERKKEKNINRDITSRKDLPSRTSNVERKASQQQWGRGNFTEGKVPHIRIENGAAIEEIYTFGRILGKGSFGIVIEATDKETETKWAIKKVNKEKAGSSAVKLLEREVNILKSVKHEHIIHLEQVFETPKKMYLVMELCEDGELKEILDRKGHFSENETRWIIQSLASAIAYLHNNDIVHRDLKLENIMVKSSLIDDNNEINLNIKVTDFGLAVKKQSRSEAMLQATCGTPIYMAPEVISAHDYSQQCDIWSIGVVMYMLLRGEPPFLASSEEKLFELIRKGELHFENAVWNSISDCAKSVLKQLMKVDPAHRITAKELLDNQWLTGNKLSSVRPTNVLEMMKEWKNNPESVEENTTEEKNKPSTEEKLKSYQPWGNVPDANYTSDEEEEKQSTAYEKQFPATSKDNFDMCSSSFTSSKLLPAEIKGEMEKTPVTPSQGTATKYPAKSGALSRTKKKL
off-target kinases (Homo sapiens, UniProt Q14012), sequence (Q14012 whole entry): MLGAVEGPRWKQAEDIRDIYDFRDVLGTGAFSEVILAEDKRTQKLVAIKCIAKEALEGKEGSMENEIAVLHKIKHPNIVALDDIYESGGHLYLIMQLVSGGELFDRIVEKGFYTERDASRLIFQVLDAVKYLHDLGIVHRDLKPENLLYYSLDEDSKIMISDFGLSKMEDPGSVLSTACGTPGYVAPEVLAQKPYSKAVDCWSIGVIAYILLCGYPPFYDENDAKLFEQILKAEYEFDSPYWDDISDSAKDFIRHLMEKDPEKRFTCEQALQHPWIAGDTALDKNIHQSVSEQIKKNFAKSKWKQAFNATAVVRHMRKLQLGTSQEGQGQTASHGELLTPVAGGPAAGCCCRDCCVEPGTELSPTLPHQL
off-target kinases (Homo sapiens, UniProt Q9HC98), sequence (Q9HC98 whole entry): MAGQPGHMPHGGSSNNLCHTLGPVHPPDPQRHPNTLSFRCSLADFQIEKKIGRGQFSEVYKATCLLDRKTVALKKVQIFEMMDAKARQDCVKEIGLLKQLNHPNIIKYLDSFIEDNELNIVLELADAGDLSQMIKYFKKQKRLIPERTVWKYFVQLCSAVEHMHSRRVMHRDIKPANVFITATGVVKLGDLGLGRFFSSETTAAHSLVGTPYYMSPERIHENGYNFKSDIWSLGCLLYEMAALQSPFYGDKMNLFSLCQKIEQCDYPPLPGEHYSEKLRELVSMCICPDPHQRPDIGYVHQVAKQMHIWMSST
off-target kinases (Homo sapiens, UniProt P16234), sequence (P16234 24-1089): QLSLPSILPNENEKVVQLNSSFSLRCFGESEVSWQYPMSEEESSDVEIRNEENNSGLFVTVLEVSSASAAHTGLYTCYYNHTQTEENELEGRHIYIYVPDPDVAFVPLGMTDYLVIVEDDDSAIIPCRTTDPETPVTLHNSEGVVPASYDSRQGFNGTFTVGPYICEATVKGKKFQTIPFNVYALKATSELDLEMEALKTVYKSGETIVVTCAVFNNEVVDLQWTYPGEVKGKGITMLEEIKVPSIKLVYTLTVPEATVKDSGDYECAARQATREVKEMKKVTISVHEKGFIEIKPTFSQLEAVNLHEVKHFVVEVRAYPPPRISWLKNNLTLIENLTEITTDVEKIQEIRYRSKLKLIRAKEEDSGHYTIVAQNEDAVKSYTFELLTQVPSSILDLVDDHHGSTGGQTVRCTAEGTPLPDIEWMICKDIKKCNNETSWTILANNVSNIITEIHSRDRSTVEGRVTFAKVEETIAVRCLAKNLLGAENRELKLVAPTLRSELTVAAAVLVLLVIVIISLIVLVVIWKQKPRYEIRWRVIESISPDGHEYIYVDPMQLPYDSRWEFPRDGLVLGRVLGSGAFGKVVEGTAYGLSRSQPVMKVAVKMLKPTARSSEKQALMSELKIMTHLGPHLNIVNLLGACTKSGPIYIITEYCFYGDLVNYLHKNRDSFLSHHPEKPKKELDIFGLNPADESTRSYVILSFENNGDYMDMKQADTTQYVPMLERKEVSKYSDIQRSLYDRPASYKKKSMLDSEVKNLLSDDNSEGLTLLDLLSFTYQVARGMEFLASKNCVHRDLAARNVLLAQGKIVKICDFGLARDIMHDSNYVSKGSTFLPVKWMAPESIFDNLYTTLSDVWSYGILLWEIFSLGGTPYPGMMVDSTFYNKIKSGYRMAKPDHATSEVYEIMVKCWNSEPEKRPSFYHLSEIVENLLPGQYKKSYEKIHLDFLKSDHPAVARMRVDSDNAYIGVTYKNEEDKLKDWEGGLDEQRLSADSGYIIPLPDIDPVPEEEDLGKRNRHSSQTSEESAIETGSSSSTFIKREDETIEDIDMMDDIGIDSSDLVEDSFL

For `N#Cc1cc(-c2ncnc(Nc3ccc(N4CCN(C5COC5)CC4)cc3)n2)ccc1OC1CCOCC1` [Compound 1, 5-(4-((4-(4-(oxetan-3-yl)piperazin-1-yl)phenyl)amino)-1,3,5-triazin-2-yl)-2-((tetrahydro-2H-pyran-4-yl)oxy)benzonitrile], the inhibition ([1]; read-out: % Inhibition 1) was 59%, the inhibition ([1]; read-out: % Inhibition 2) was 55% and the inhibition ([1]; read-out: % Inhibition Avg) was 57%. The inhibition ([2]; read-out: % Inhibition 1) was 99%, the inhibition ([2]; read-out: % Inhibition 2) was 95% and the inhibition ([2]; read-out: % Inhibition Avg) was 97%. The inhibition ([3]; read-out: % Inhibition 1) was 43%, the inhibition ([3]; read-out: % Inhibition 2) was 43% and the inhibition ([3]; read-out: % Inhibition Avg) was 43%. It also gave an inhibition ([4]; read-out: % Inhibition 1) of 7%, an inhibition ([4]; read-out: % Inhibition 2) of 8% and an inhibition ([4]; read-out: % Inhibition Avg) of 7%. For the same compound, the inhibition ([5]; read-out: % Inhibition 1) was 12%, the inhibition ([5]; read-out: % Inhibition 2) was 6% and the inhibition ([5]; read-out: % Inhibition Avg) was 9%. For the same compound, the inhibition ([6]; read-out: % Inhibition 1) was 42%, the inhibition ([6]; read-out: % Inhibition 2) was 39% and the inhibition ([6]; read-out: % Inhibition Avg) was 41%. It also gave an inhibition ([7]; read-out: % Inhibition 1) of 14%, an inhibition ([7]; read-out: % Inhibition 2) of 19% and an inhibition ([7]; read-out: % Inhibition Avg) of 17%.
